In brackets after ≈: the same amount, converted by molar mass. Where a SMILES comes first, the peptide text is derived from it. Bridges are numbered along the chain shown (N, C = ends). [ ]: non-standard residue; d: D form. Hyp = O=C(O)[C@@H]1C[C@@H](O)CN1; Pen = CC(C)(S)[C@H](N)C(=O)O; dDab = NCC[C@@H](N)C(=O)O; Dab = NCC[C@H](N)C(=O)O
Assays:
[1] = in vitro; type: cell-based; conditions: human
Procedure: The cytotoxicity of compounds was determined by determining the number of viable cells using the Sigma Cell Counting Kit-8 (WST-8). HeLa cells were incubated at 37°C and 5% CO2 for 24 hours, after which the medium was replaced with fresh medium containing dilutions of compounds. […]

[2] = target: T1, LptAmQ62L (Escherichia coli, UniProt P0ADV1, Q62L); assay: biochemical; type: binding, E. coli
T1 construct: His6-GB1 (N, cleaved yes); made in house; host or cells: E. coli BL21 (DE3)
T1 sequence (P0ADV1 28-159 Q62L): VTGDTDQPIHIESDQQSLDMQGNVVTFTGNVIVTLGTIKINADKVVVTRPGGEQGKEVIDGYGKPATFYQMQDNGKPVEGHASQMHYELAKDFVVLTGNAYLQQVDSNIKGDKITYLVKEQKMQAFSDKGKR
Procedure: (§1) Protein stocks were purified and concentrated in buffer 1 [50 mM Na-Pi (pH 7) and 150 mM NaCl] and, if necessary, diluted to desired concentrations using buffer 2 [50 mM Na-Pi (pH 7), 150 mM NaCl, and 0.05% Tween 20]. Peptide stocks and fluorescently labeled peptide stocks were made in buffer 2. Every serial dilution consisted of 24 wells, the first well with the highest concentrate and the last well (well 24) with the lowest. First, 50 μl of buffer 2 was added to the wells 2 to 24 of each serial dilution. Then, 100 μl of concentrated unlabeled peptide/protein in their respective buffers was added to the first well. Fifty microliters were taken from the first well and added to the second well for a 1:1 serial dilution and continued for the 24 wells. […] Plates were covered with adhesive seals and left to incubate overnight at 4°C before FP measurements the next day. Anisotropy was measured using the Tecan Safire2 plate reader using a 10-nm bandwidth and setting the excitation and emission wavelengths to 635 and 670 nm, respectively. The G-factor (G) was also determined empirically as 1.094 for the instrument and included in all the anisotropy calculations.
(§2) For the indirect binding assays, r was calculated in the same manner as the direct binding assays. […] The control was subtracted from r to yield r′. Data were fit to a sigmoidal interpolation model on GraphPad Prism 9, and an IC50 was generated for each unlabeled peptide or protein measured.

[3] = target: T2, LptAm (Escherichia coli, UniProt P0ADV1); assay: biochemical; type: binding, E. coli
T2 construct: His6-GB1 (N, cleaved yes); made in house; host or cells: E. coli BL21 (DE3)
T2 sequence (P0ADV1 28-159): as the sequence (P0ADV1 28-159 Q62L) above, with L35Q counted along it
Procedure: as §1, §2

[4] = test system: K. pneumoniae NCTC 13443 (NDM-1) LptA Q62L mutant; assay: microbe, parasite or virus in culture; conditions: for MIC K. pneumoniae NCTC 13443 (NDM-1) Q62L mutant: CLSI method, clone harboring LptA Q62L; for MIC Klebsiella pneumoniae NCTC 13443 LptA Q62L (5x): Table S9 panel
Procedure: (§3) MIC assays [Clinical and Laboratory Standards Institute (CLSI) methodology] and serial passage studies were performed as described by Luther et al. ([6]). […] Resistant mutants were isolated, and their MIC values were determined and sent to Microbes NG (Birmingham, United Kingdom) for whole-genome sequencing and bioinformatic analysis.

[5] = test system: Escherichia coli ATCC 25922 LptA E84D mutant; assay: microbe, parasite or virus in culture; conditions: Table S9 panel
Procedure: as §3

[6] = test system: E. coli ATCC 25922 LptA Q62L mutant; assay: microbe, parasite or virus in culture; conditions: for MIC E. coli ATCC 25922 Q62L mutant: CLSI method, clone harboring LptA Q62L
Procedure: as §3

[7] = test system: Klebsiella pneumoniae ATCC 43816 LapB mutant; assay: microbe, parasite or virus in culture; conditions: Table S9 panel; other mutation
Procedure: as §3

[8] = test system: Klebsiella pneumoniae NCTC 13443 LptA I36S mutant; assay: microbe, parasite or virus in culture; conditions: Table S9 panel
Procedure: as §3

[9] = test system: Escherichia coli ATCC 25922 KdsD mutant; assay: microbe, parasite or virus in culture; conditions: Table S9 panel; other mutation
Procedure: as §3

[10] = test system: Klebsiella pneumoniae ATCC 43816 LptA I36N mutant; assay: microbe, parasite or virus in culture; conditions: Table S9 panel
Procedure: as §3

[11] = test system: K. pneumoniae ATCC 43816 LptA Q62L mutant; assay: microbe, parasite or virus in culture; conditions: for MIC Klebsiella pneumoniae ATCC 43816 LptA Q62L (4x): Table S9 panel
Procedure: as §3

[12] = test system: E. coli ATCC 25922 (parent / WT); assay: microbe, parasite or virus in culture; conditions: for MIC Escherichia coli ATCC 25922 WT: Table S9 panel
Procedure: as §3

[13] = test system: Klebsiella pneumoniae ATCC 43816 PglJ, PhnJ, ThiH mutant; assay: microbe, parasite or virus in culture; conditions: Table S9 panel; other mutation
Procedure: as §3

[14] = test system: Klebsiella pneumoniae NCTC 13443 YejM mutant; assay: microbe, parasite or virus in culture; conditions: Table S9 panel; other mutation
Procedure: as §3

[15] = test system: Klebsiella pneumoniae NCTC 13443 LpxC, LpxD mutant; assay: microbe, parasite or virus in culture; conditions: Table S9 panel; other mutation
Procedure: as §3

[16] = test system: K. pneumoniae NCTC 13443 (NDM-1) (parent / WT); assay: microbe, parasite or virus in culture
Procedure: as §3

[17] = test system: Klebsiella pneumoniae ATCC 43816 LptA I36S mutant; assay: microbe, parasite or virus in culture; conditions: Table S9 panel
Procedure: as §3

[18] = test system: K. pneumoniae ATCC 43816 (parent / WT); assay: microbe, parasite or virus in culture
Procedure: as §3

[19] = test system: Klebsiella pneumoniae ATCC 43816 LptA L116Q mutant; assay: microbe, parasite or virus in culture; conditions: Table S9 panel
Procedure: as §3

[20] = Plasma protein binding; type: in vitro ADME, mouse; conditions: mouse, plasma, pH 7.5
Procedure: (§4) After ultrafiltration, protein binding was determined by subtracting the percentage of compound in ultrafiltrate from the total amount of compound in spiked plasma (table S4A).

[21] = test system: human red blood cells; assay: Haemolysis; type: cell-based; conditions: PBS-washed human red blood cells; 1 h at 200 mg/liter, 37°C; OD 540 nm; versus 100% lysis control 2.5% Triton X-100; biological replicates
Procedure: To test their hemolytic potential, compounds were incubated in the presence of phosphate-buffered saline (PBS)–washed human red blood cells. After 1-hour incubation at 200 mg/liter and 37°C, the samples were centrifuged (3220g), the supernatants were diluted in Dulbecco’s PBS, and optical density at 540 nm was determined. The hemolysis induced by the compound was calculated versus a 100% lysis control prepared with 2.5% Triton X-100 (table S4A).

[22] = Plasma protein binding; type: in vitro ADME, human; conditions: human, plasma, pH 7.5
Procedure: as §4

[23] = test system: K. pneumoniae; type: cell-based, Klebsiella pneumoniae; conditions: serial passage in broth at sub-MIC and multiples of the MIC
Procedure: as §3
(§5) Fig. S8. Resistance development studies by serial passage. Broth containing a single antibiotic at sub-MIC and multiples of the MIC were inoculated with bacteria. Drug concentrations were […]
(§6) day 1 and 2 of passaging.
(§7) (1 picture or pasted object on this page, not shown here)

[24] = test system: panel of 121 Enterobacteriaceae including CRE, MDR, and XDR isolates; assay: organism not typed; conditions: CLSI microdilution method; 121 isolates
Procedure: as §3

[25] = test system: K. pneumoniae 968733 (CST-R); assay: MIC assay (CLSI); type: cell-based, Klebsiella pneumoniae; conditions: CLSI method; colistin-resistant strain
Procedure: as §3

[26] = test system: Enterobacteriaceae (CS, Col-S) (n=22); type: cell-based; conditions: CLSI microdilution; minimum and maximum MIC of the panel; carbapenem sensitive, colistin sensitive
Procedure: as §3

[27] = test system: E. coli; type: cell-based, Escherichia coli; conditions: serial passage in broth at sub-MIC and multiples of the MIC
Procedure: as §3, §5, §6, §7

Compound	MIC K. pneumoniae NCTC 13443 (NDM-1) Q62L mutant [4] [micrograms per milliliter]	MIC Klebsiella pneumoniae NCTC 13443 LptA Q62L (5x) [4] [µg/mL]	MIC Escherichia coli ATCC 25922 LptA E84D (1x) [5] [µg/mL]	MIC E. coli ATCC 25922 Q62L mutant [6] [micrograms per milliliter]	MIC Klebsiella pneumoniae ATCC 43816 LapB (1x) [7] [µg/mL]	MIC Klebsiella pneumoniae NCTC 13443 LptA I36S (2x) [8] [µg/mL]	MIC Escherichia coli ATCC 25922 KdsD (2x) [9] [µg/mL]	MIC Klebsiella pneumoniae ATCC 43816 LptA I36N (1x) [10] [µg/mL]	MIC Klebsiella pneumoniae ATCC 43816 LptA Q62L (4x) [11] [µg/mL]	MIC Escherichia coli ATCC 25922 WT [12] [µg/mL]	MIC Klebsiella pneumoniae ATCC 43816 PglJ, PhnJ, ThiH (1x) [13] [µg/mL]	MIC Klebsiella pneumoniae NCTC 13443 YejM (1x) [14] [µg/mL]	MIC Klebsiella pneumoniae NCTC 13443 LpxC, LpxD (1x) [15] [µg/mL]	MIC Klebsiella pneumoniae ATCC 43816 LptA I36S (1x) [17] [µg/mL]	MIC Klebsiella pneumoniae ATCC 43816 LptA L116Q (1x) [19] [µg/mL]	further results
CC[C@H](C)[C@H](NC(=O)[C@@H](NC(=O)[C@@H]1C[C@@H](O)CN1C(=O)[C@@H](N)C(C)C)[C@@H](C)CC)C(=O)N[C@@H](Cc1ccc(O)cc1)C(=O)N[C@@H]1C(=O)N[C@@H](CC(N)=O)C(=O)N[C@@H](CCCNC(=N)N)C(=O)N[C@@H](CCN)C(=O)N[C@@H]([C@@H](C)O)C(=O)N[C@H](CCN)C(=O)N[C@@H](CCCCN)C(=O)N[C@H](C(=O)N[C@@H](CCN)C(=O)N[C@@H](CCN)C(=O)N[C@@H](Cc2ccc(O)cc2)C(=O)O)CSSC1(C)C [Compound 5] (H-V[Hyp]IIY[Pen]NR[Dab]T[dDab]KC[Dab][Dab]Y-OH; disulfide 6-13)	4	8 (≈ 4.18 µM)	1 (≈ 0.522 µM)	0.25	0.5 (≈ 0.261 µM)	4 (≈ 2.09 µM)	0.5 (≈ 0.261 µM)	1 (≈ 0.522 µM)	4 (≈ 2.09 µM)	0.125 (≈ 0.0653 µM)	0.5 (≈ 0.261 µM)	2 (≈ 1.04 µM)	0.5 (≈ 0.261 µM)	1 (≈ 0.522 µM)	1 (≈ 0.522 µM)	IC50 at 48 h [1]: 1270 µM; IC50 [2]: 0.0139 ± 0.0023 µM; Ki [2]: 0.0094 ± 0.0015 µM; IC50 [3]: 0.0186 ± 0.0011 µM; Ki [3]: 0.0031 ± 0.0002 µM; MIC E. coli ATCC 25922 Parent ([12]; CLSI method, parent strain): 0.063 micrograms per milliliter; MIC K. pneumoniae NCTC 13443 (NDM-1) Parent ([16]; CLSI method, parent strain): 1 micrograms per milliliter; MIC K. pneumoniae ATCC 43816 Parent ([18]; ATCC 43816): 0.25 micrograms per milliliter; fraction unbound at 30 min, 10 mg/liter [20]: 0.13; Haemolysis % at 0.2 g/L [21]: 0%; fraction unbound at 30 min, 10 mg/liter [22]: 0.18
Colistin	0.125	0.13	0.25	0.25	0.13	0.13	0.25	≤ 0.06	0.13	0.25	0.13	0.25	0.25	0.13	0.13	MIC Escherichia coli ATCC 25922 LptA Q62L (7x) ([6]; Table S9 panel): 0.13 µg/mL; MIC K. pneumoniae ATCC 43816 Q62L mutant ([11]; CLSI method, clone harboring LptA Q62L): 0.125 micrograms per milliliter; MIC Klebsiella pneumoniae NCTC 13443 WT ([16]; Table S9 panel, WT): 0.25 µg/mL; MIC K. pneumoniae ATCC 43816 Parent ([18]; CLSI method, parent strain): 0.125 micrograms per milliliter; MIC Klebsiella pneumoniae ATCC 43816 WT ([18]; Table S9 panel, WT): 0.13 µg/mL; Development of resistance, day of passaging, K. pneumoniae [23]: 1 to 3 days; MIC50 (n=121) [24]: 0.13 µg/mL; MIC90 (n=121) [24]: > 8 µg/mL; MIC K. pneumoniae 968733 (CST-R) Parent [25]: >8 micrograms per milliliter; MIC range Enterobacteriaceae (CS, Col-S) (n=22) [26]: 0.06 to 0.5 µg/mL; Development of resistance, day of passaging, E. coli [27]: 5 to 7 days

Source: publication PMC10208570, “Peptidomimetic antibiotics disrupt the lipopolysaccharide transport bridge of drug-resistant Enterobacteriaceae” (Science Advances, 2023)
